≈ marks a conversion by molar mass, not a printed value.
system: Staphylococcus aureus; experiment: Antibacterial activity against quinolone-resistant Staphylococcus aureus CCARM 3519 after 24 hrs by broth microdilution method; assay type: functional; settings: CCARM 3519, 24 h

For `O=C(O)[C@H](Cc1ccccc1)N1C(=O)/C(=C/c2cc3cc(OCc4ccc(Cl)cc4)ccc3nc2Cl)SC1=S`, which MIC is on record?
The MIC was 2 µg/mL (≈ 3.36 µM).

How did the MIC turn out when `CCC(C)[C@@H](C(=O)O)N1C(=O)/C(=C/c2cc3cc(OCc4cccc(Cl)c4)ccc3nc2Cl)SC1=S` (stereo partly drawn) was run?
Its MIC is 2 µg/mL (≈ 3.56 µM).

`CCC(C)[C@@H](C(=O)O)N1C(=O)/C(=C/c2cc3cc(OCc4ccccc4F)ccc3nc2Cl)SC1=S` (stereo partly drawn) was tested. Which MIC did it give?
Its MIC is 2 µg/mL (≈ 3.67 µM).

With `CC(C)C[C@@H](C(=O)O)N1C(=O)/C(=C/c2cc3cc(OCc4ccccc4Cl)ccc3nc2Cl)SC1=S` as the compound, how does the MIC read?
Its MIC is 2 µg/mL (≈ 3.56 µM).

For `CC(C)C[C@@H](C(=O)O)N1C(=O)/C(=C/c2cc3cc(OCc4ccc(F)cc4)ccc3nc2Cl)SC1=S`, which MIC is on record?
Its MIC is 1 µg/mL (≈ 1.83 µM).

`O=C(O)[C@H](Cc1ccccc1)N1C(=O)/C(=C/c2cc3cc(OCc4cccc(F)c4)ccc3nc2Cl)SC1=S` was tested. Which MIC did it give?
Its MIC is 2 µg/mL (≈ 3.45 µM).

system: Staphylococcus aureus; experiment: Antibacterial activity against quinolone-resistant Staphylococcus aureus CCARM 3505 after 24 hrs by broth microdilution method; assay type: functional; settings: CCARM 3505, 24 h

How did the MIC turn out when `O=C(O)[C@H](Cc1ccccc1)N1C(=O)/C(=C/c2cc3cc(OCc4ccc(Cl)cc4)ccc3nc2Cl)SC1=S` was run?
The MIC was 2 µg/mL (≈ 3.36 µM).

How did the MIC turn out when `CCC(C)[C@@H](C(=O)O)N1C(=O)/C(=C/c2cc3cc(OCc4cccc(Cl)c4)ccc3nc2Cl)SC1=S` (stereo partly drawn) was run?
The MIC was 1 µg/mL (≈ 1.78 µM).

Which MIC does the source give for `CCC(C)[C@@H](C(=O)O)N1C(=O)/C(=C/c2cc3cc(OCc4ccccc4F)ccc3nc2Cl)SC1=S` (stereo partly drawn) here?
Its MIC is 2 µg/mL (≈ 3.67 µM).

Which MIC does the source give for `CC(C)C[C@@H](C(=O)O)N1C(=O)/C(=C/c2cc3cc(OCc4ccccc4Cl)ccc3nc2Cl)SC1=S` here?
The MIC was 1 µg/mL (≈ 1.78 µM).

`CC(C)C[C@@H](C(=O)O)N1C(=O)/C(=C/c2cc3cc(OCc4ccc(F)cc4)ccc3nc2Cl)SC1=S` was tested. Which MIC did it give?
Its MIC is 2 µg/mL (≈ 3.67 µM).

With `O=C(O)[C@H](Cc1ccccc1)N1C(=O)/C(=C/c2cc3cc(OCc4cccc(F)c4)ccc3nc2Cl)SC1=S` as the compound, how does the MIC read?
The MIC was 1 µg/mL (≈ 1.73 µM).

system: Staphylococcus aureus; experiment: Antibacterial activity against methicillin-resistant Staphylococcus aureus CCARM 3506 after 24 hrs by broth microdilution method; assay type: functional; settings: CCARM 3506, 24 h

Which MIC does the source give for `O=C(O)[C@H](Cc1ccccc1)N1C(=O)/C(=C/c2cc3cc(OCc4ccc(Cl)cc4)ccc3nc2Cl)SC1=S` here?
The MIC was 2 µg/mL (≈ 3.36 µM).

Which MIC does the source give for `CCC(C)[C@@H](C(=O)O)N1C(=O)/C(=C/c2cc3cc(OCc4cccc(Cl)c4)ccc3nc2Cl)SC1=S` (stereo partly drawn) here?
The MIC was 1 µg/mL (≈ 1.78 µM).

Which MIC does the source give for `CCC(C)[C@@H](C(=O)O)N1C(=O)/C(=C/c2cc3cc(OCc4ccccc4F)ccc3nc2Cl)SC1=S` (stereo partly drawn) here?
The MIC was 1 µg/mL (≈ 1.83 µM).

How did the MIC turn out when `CC(C)C[C@@H](C(=O)O)N1C(=O)/C(=C/c2cc3cc(OCc4ccccc4Cl)ccc3nc2Cl)SC1=S` was run?
The MIC was 1 µg/mL (≈ 1.78 µM).

`CC(C)C[C@@H](C(=O)O)N1C(=O)/C(=C/c2cc3cc(OCc4ccc(F)cc4)ccc3nc2Cl)SC1=S` was tested. Which MIC did it give?
Its MIC is 2 µg/mL (≈ 3.67 µM).

For `O=C(O)[C@H](Cc1ccccc1)N1C(=O)/C(=C/c2cc3cc(OCc4cccc(F)c4)ccc3nc2Cl)SC1=S`, which MIC is on record?
Its MIC is 1 µg/mL (≈ 1.73 µM).

system: Staphylococcus aureus; experiment: Antibacterial activity against methicillin-resistant Staphylococcus aureus CCARM 3167 after 24 hrs by broth microdilution method; assay type: functional; settings: CCARM 3167, 24 h

With `O=C(O)[C@H](Cc1ccccc1)N1C(=O)/C(=C/c2cc3cc(OCc4ccc(Cl)cc4)ccc3nc2Cl)SC1=S` as the compound, how does the MIC read?
The MIC was 2 µg/mL (≈ 3.36 µM).

`CCC(C)[C@@H](C(=O)O)N1C(=O)/C(=C/c2cc3cc(OCc4cccc(Cl)c4)ccc3nc2Cl)SC1=S` (stereo partly drawn) was tested. Which MIC did it give?
The MIC was 2 µg/mL (≈ 3.56 µM).

Which MIC does the source give for `CCC(C)[C@@H](C(=O)O)N1C(=O)/C(=C/c2cc3cc(OCc4ccccc4F)ccc3nc2Cl)SC1=S` (stereo partly drawn) here?
The MIC was 2 µg/mL (≈ 3.67 µM).

With `CC(C)C[C@@H](C(=O)O)N1C(=O)/C(=C/c2cc3cc(OCc4ccccc4Cl)ccc3nc2Cl)SC1=S` as the compound, how does the MIC read?
Its MIC is 1 µg/mL (≈ 1.78 µM).

Which MIC does the source give for `CC(C)C[C@@H](C(=O)O)N1C(=O)/C(=C/c2cc3cc(OCc4ccc(F)cc4)ccc3nc2Cl)SC1=S` here?
The MIC was 2 µg/mL (≈ 3.67 µM).

For `O=C(O)[C@H](Cc1ccccc1)N1C(=O)/C(=C/c2cc3cc(OCc4cccc(F)c4)ccc3nc2Cl)SC1=S`, which MIC is on record?
The MIC was 2 µg/mL (≈ 3.45 µM).

system: Escherichia coli; experiment: Antibacterial activity against Escherichia coli CCARM 1356 after 24 hrs by broth microdilution method; assay type: functional; settings: CCARM 1356, 24 h

With `O=C(O)[C@H](Cc1ccccc1)N1C(=O)/C(=C/c2cc3cc(OCc4ccc(Cl)cc4)ccc3nc2Cl)SC1=S` as the compound, how does the MIC read?
Its MIC is greater than 64 µg/mL.

How did the MIC turn out when `CCC(C)[C@@H](C(=O)O)N1C(=O)/C(=C/c2cc3cc(OCc4cccc(Cl)c4)ccc3nc2Cl)SC1=S` (stereo partly drawn) was run?
Its MIC is greater than 64 µg/mL.

With `CCC(C)[C@@H](C(=O)O)N1C(=O)/C(=C/c2cc3cc(OCc4ccccc4F)ccc3nc2Cl)SC1=S` (stereo partly drawn) as the compound, how does the MIC read?
Its MIC is greater than 64 µg/mL.

Which MIC does the source give for `CC(C)C[C@@H](C(=O)O)N1C(=O)/C(=C/c2cc3cc(OCc4ccccc4Cl)ccc3nc2Cl)SC1=S` here?
The MIC was greater than 64 µg/mL.

With `CC(C)C[C@@H](C(=O)O)N1C(=O)/C(=C/c2cc3cc(OCc4ccc(F)cc4)ccc3nc2Cl)SC1=S` as the compound, how does the MIC read?
Its MIC is greater than 64 µg/mL.

How did the MIC turn out when `O=C(O)[C@H](Cc1ccccc1)N1C(=O)/C(=C/c2cc3cc(OCc4cccc(F)c4)ccc3nc2Cl)SC1=S` was run?
Its MIC is greater than 64 µg/mL.

system: Staphylococcus aureus; experiment: Antibacterial activity against Staphylococcus aureus KCTC 503 after 24 hrs by broth microdilution method; assay type: functional; settings: KCTC 503, 24 h

With `O=C(O)[C@H](Cc1ccccc1)N1C(=O)/C(=C/c2cc3cc(OCc4ccc(Cl)cc4)ccc3nc2Cl)SC1=S` as the compound, how does the MIC read?
Its MIC is 4 µg/mL (≈ 6.72 µM).

For `CCC(C)[C@@H](C(=O)O)N1C(=O)/C(=C/c2cc3cc(OCc4cccc(Cl)c4)ccc3nc2Cl)SC1=S` (stereo partly drawn), which MIC is on record?
The MIC was 4 µg/mL (≈ 7.12 µM).

With `CCC(C)[C@@H](C(=O)O)N1C(=O)/C(=C/c2cc3cc(OCc4ccccc4F)ccc3nc2Cl)SC1=S` (stereo partly drawn) as the compound, how does the MIC read?
Its MIC is 4 µg/mL (≈ 7.34 µM).

How did the MIC turn out when `CC(C)C[C@@H](C(=O)O)N1C(=O)/C(=C/c2cc3cc(OCc4ccccc4Cl)ccc3nc2Cl)SC1=S` was run?
Its MIC is 8 µg/mL (≈ 14.2 µM).

For `CC(C)C[C@@H](C(=O)O)N1C(=O)/C(=C/c2cc3cc(OCc4ccc(F)cc4)ccc3nc2Cl)SC1=S`, which MIC is on record?
Its MIC is 8 µg/mL (≈ 14.7 µM).

How did the MIC turn out when `O=C(O)[C@H](Cc1ccccc1)N1C(=O)/C(=C/c2cc3cc(OCc4cccc(F)c4)ccc3nc2Cl)SC1=S` was run?
Its MIC is 4 µg/mL (≈ 6.91 µM).

system: Staphylococcus aureus; experiment: Antibacterial activity against Staphylococcus aureus KCTC 209 after 24 hrs by broth microdilution method; assay type: functional; settings: KCTC 209, 24 h

How did the MIC turn out when `O=C(O)[C@H](Cc1ccccc1)N1C(=O)/C(=C/c2cc3cc(OCc4ccc(Cl)cc4)ccc3nc2Cl)SC1=S` was run?
Its MIC is 8 µg/mL (≈ 13.4 µM).

`CCC(C)[C@@H](C(=O)O)N1C(=O)/C(=C/c2cc3cc(OCc4cccc(Cl)c4)ccc3nc2Cl)SC1=S` (stereo partly drawn) was tested. Which MIC did it give?
The MIC was greater than 64 µg/mL.

Which MIC does the source give for `CCC(C)[C@@H](C(=O)O)N1C(=O)/C(=C/c2cc3cc(OCc4ccccc4F)ccc3nc2Cl)SC1=S` (stereo partly drawn) here?
Its MIC is 32 µg/mL (≈ 58.7 µM).

How did the MIC turn out when `CC(C)C[C@@H](C(=O)O)N1C(=O)/C(=C/c2cc3cc(OCc4ccccc4Cl)ccc3nc2Cl)SC1=S` was run?
Its MIC is 4 µg/mL (≈ 7.12 µM).

For `CC(C)C[C@@H](C(=O)O)N1C(=O)/C(=C/c2cc3cc(OCc4ccc(F)cc4)ccc3nc2Cl)SC1=S`, which MIC is on record?
Its MIC is 8 µg/mL (≈ 14.7 µM).

For `O=C(O)[C@H](Cc1ccccc1)N1C(=O)/C(=C/c2cc3cc(OCc4cccc(F)c4)ccc3nc2Cl)SC1=S`, which MIC is on record?
Its MIC is 64 µg/mL (≈ 111 µM).

system: Staphylococcus aureus; experiment: Antibacterial activity against Staphylococcus aureus RN4220 after 24 hrs by broth microdilution method; assay type: functional; settings: RN4220, 24 h

`O=C(O)[C@H](Cc1ccccc1)N1C(=O)/C(=C/c2cc3cc(OCc4ccc(Cl)cc4)ccc3nc2Cl)SC1=S` was tested. Which MIC did it give?
The MIC was 4 µg/mL (≈ 6.72 µM).

Which MIC does the source give for `CCC(C)[C@@H](C(=O)O)N1C(=O)/C(=C/c2cc3cc(OCc4cccc(Cl)c4)ccc3nc2Cl)SC1=S` (stereo partly drawn) here?
Its MIC is 2 µg/mL (≈ 3.56 µM).

Which MIC does the source give for `CCC(C)[C@@H](C(=O)O)N1C(=O)/C(=C/c2cc3cc(OCc4ccccc4F)ccc3nc2Cl)SC1=S` (stereo partly drawn) here?
Its MIC is 2 µg/mL (≈ 3.67 µM).

For `CC(C)C[C@@H](C(=O)O)N1C(=O)/C(=C/c2cc3cc(OCc4ccccc4Cl)ccc3nc2Cl)SC1=S`, which MIC is on record?
The MIC was 1 µg/mL (≈ 1.78 µM).

Which MIC does the source give for `CC(C)C[C@@H](C(=O)O)N1C(=O)/C(=C/c2cc3cc(OCc4ccc(F)cc4)ccc3nc2Cl)SC1=S` here?
Its MIC is 2 µg/mL (≈ 3.67 µM).

How did the MIC turn out when `O=C(O)[C@H](Cc1ccccc1)N1C(=O)/C(=C/c2cc3cc(OCc4cccc(F)c4)ccc3nc2Cl)SC1=S` was run?
The MIC was 4 µg/mL (≈ 6.91 µM).
